According to PubChem BioAssay (NCI):
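Protocol summary: plate cells (96-well), add compound at 5 concentrations, incubate 48 h, interpolate endpoints linearly. Abbreviation: GI50, concentration required for 50% inhibition of growth. At the TGI there is no net growth.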

Legend:
Assay in all cases: DTP human tumour cell line panel, 48 h
[1] = tested on: SR leukemia
[2] = tested on: DU-145 prostate
[3] = tested on: HS 578T breast
[4] = tested on: CAKI-1 renal
[5] = tested on: UACC-257 melanoma
[6] = tested on: SF-268 CNS
[7] = tested on: SK-OV-3 ovarian
[8] = tested on: NCI-H522 lung
[9] = tested on: ACHN renal
[10] = tested on: MALME-3M melanoma
[11] = tested on: U251 CNS
[12] = tested on: 786-0 renal
[13] = tested on: MDA-MB-231 breast
[14] = tested on: HOP-92 NSCLC
[15] = tested on: LOX IMVI melanoma
[16] = tested on: K-562 leukemia
[17] = tested on: HOP-62 NSCLC
[18] = tested on: NCI-H226 lung
[19] = tested on: SK-MEL-2 melanoma
[20] = tested on: MOLT-4 leukemia
[21] = tested on: RXF 393 renal
[22] = tested on: PC-3 prostate
[23] = tested on: A549 NSCLC
[24] = tested on: IGROV1 ovarian
[25] = tested on: TK-10 renal
[26] = tested on: OVCAR-5 ovarian
[27] = tested on: OVCAR-3 ovarian
[28] = tested on: SNB-75 CNS
[29] = tested on: HCC-2998 colon
[30] = tested on: UACC-62 melanoma
[31] = tested on: HCT-15 colon
[32] = tested on: HT29 colon
[33] = tested on: SF-295 CNS
[34] = tested on: MDA-MB-435
[35] = tested on: NCI-H460 lung
[36] = tested on: MCF7 breast
[37] = tested on: SN12C renal
[38] = tested on: SNB-19 CNS
[39] = tested on: SF-539 CNS
[40] = tested on: HL-60(TB) leukemia
[41] = tested on: M14 melanoma
[42] = tested on: T-47D breast
[43] = tested on: SW-620 colon
[44] = tested on: BT-549 breast
[45] = tested on: KM12 colon
[46] = tested on: OVCAR-8 ovarian
[47] = tested on: EKVX NSCLC
[48] = tested on: NCI-H23 lung
[49] = tested on: COLO 205 colon
[50] = tested on: HCT-116 colon
[51] = tested on: SK-MEL-28 melanoma
[52] = tested on: RPMI-8226 leukemia
[53] = tested on: SK-MEL-5 melanoma
[54] = tested on: OVCAR-4 ovarian
[55] = tested on: NCI/ADR-RES ovarian
[56] = tested on: UO-31 renal
[57] = tested on: CCRF-CEM leukemia

CCc1ccccc1-n1c(N)c(C#N)c(-c2ccc(OC)c(OC)c2)c(C#N)c1=O
GI50 [1]: 15 µM | TGI [1]: > 100 µM | GI50 [2]: 29.6 µM | TGI [2]: > 100 µM | GI50 [3]: 15.5 µM | TGI [3]: 41.3 µM | GI50 [4]: > 100 µM | TGI [4]: > 100 µM | GI50 [5]: 23.9 µM | TGI [5]: 72.6 µM | GI50 [6]: 16.2 µM | TGI [6]: 31.6 µM | GI50 [7]: 17.7 µM | TGI [7]: 36.6 µM | GI50 [8]: 19 µM | TGI [8]: 44.8 µM | GI50 [9]: 19.7 µM | TGI [9]: 53.7 µM | GI50 [10]: 17.4 µM | TGI [10]: 40.4 µM | GI50 [11]: 16.1 µM | TGI [11]: 29.8 µM | GI50 [12]: 18.8 µM | TGI [12]: 33.3 µM | GI50 [13]: 17.1 µM | TGI [13]: 35.8 µM | GI50 [14]: 0.283 µM | TGI [14]: 29 µM | GI50 [15]: 23.6 µM | TGI [15]: 92.2 µM | GI50 [16]: > 100 µM | TGI [16]: > 100 µM | GI50 [17]: 17.1 µM | TGI [17]: 34.3 µM | GI50 [18]: 17.1 µM | TGI [18]: 41.8 µM | GI50 [19]: 25.8 µM | TGI [19]: 80.6 µM | GI50 [20]: > 100 µM | TGI [20]: > 100 µM | GI50 [21]: 16.3 µM | TGI [21]: 35.3 µM | GI50 [22]: 15.4 µM | TGI [22]: 32.8 µM | GI50 [23]: 34.4 µM | TGI [23]: > 100 µM | GI50 [24]: 19.5 µM | TGI [24]: 60 µM | GI50 [25]: 18 µM | TGI [25]: 39.4 µM | GI50 [26]: 20.5 µM | TGI [26]: 55.3 µM | GI50 [27]: 17.3 µM | TGI [27]: 33.1 µM | GI50 [28]: 17.8 µM | TGI [28]: 32.1 µM | GI50 [29]: 31.9 µM | TGI [29]: > 100 µM | GI50 [30]: 16.3 µM | TGI [30]: 37.7 µM | GI50 [31]: 37.4 µM | TGI [31]: > 100 µM | GI50 [32]: 41 µM | TGI [32]: > 100 µM | GI50 [33]: 22.4 µM | TGI [33]: 61.1 µM | GI50 [34]: 34.7 µM | TGI [34]: > 100 µM | GI50 [35]: 19.3 µM | TGI [35]: 38.5 µM | GI50 [36]: 16.9 µM | TGI [36]: 33.5 µM | GI50 [37]: 19 µM | TGI [37]: 45.1 µM | GI50 [38]: 20.5 µM | TGI [38]: 59 µM | GI50 [39]: 15 µM | TGI [39]: 28.3 µM | GI50 [40]: > 100 µM | TGI [40]: > 100 µM | GI50 [41]: 19.7 µM | TGI [41]: 56 µM | GI50 [42]: 27.2 µM | TGI [42]: > 100 µM | GI50 [43]: 33.3 µM | TGI [43]: > 100 µM | GI50 [44]: 19.4 µM | TGI [44]: 49.5 µM | GI50 [45]: 16.9 µM | TGI [45]: 34.6 µM | GI50 [46]: 18.5 µM | TGI [46]: 37.6 µM | GI50 [47]: 41.1 µM | TGI [47]: > 100 µM | GI50 [48]: 17 µM | TGI [48]: 33.3 µM | GI50 [49]: > 100 µM | TGI [49]: > 100 µM | GI50 [50]: 17 µM | TGI [50]: 31.1 µM | GI50 [51]: 20.1 µM | TGI [51]: 41.8 µM | GI50 [52]: 43.1 µM | TGI [52]: > 100 µM | GI50 [53]: 32.7 µM | TGI [53]: > 100 µM | GI50 [54]: 23.1 µM | TGI [54]: 63 µM | GI50 [55]: 31.9 µM | TGI [55]: > 100 µM | GI50 [56]: 25.5 µM | TGI [56]: > 100 µM | GI50 [57]: > 100 µM | TGI [57]: > 100 µM
